{
  "source": "paper PMC5218480",
  "about": "(PLoS ONE, 2017)",
  "test_system": "MV-4-11 cells",
  "assay": "Gene expression microarray analysis (Affymetrix PrimeView) and GSEA",
  "assay_type": "cell-based, human",
  "set-up": "RFU PODN (11730768_x_at) / Fold change /veh PODN (11730768_x_at) / RFU LINC00158 (11744669_a_at) / Fold change /veh LINC00158 (11744669_a_at) / RFU DUSP10 (11751237_a_at) / Fold change /veh DUSP10 (11751237_a_at) / RFU ID3 (11757404_x_at) / Fold change /veh ID3 (11757404_x_at) / RFU PLEKHG5 (11737974_s_at) / Fold change /veh PLEKHG5 (11737974_s_at) / RFU LRRC4B (11730491_at) / Fold change /veh LRRC4B (11730491_at) / RFU GIMAP4 (11747438_a_at) / Fold change /veh GIMAP4 (11747438_a_at) / RFU KRT8 (11758183_x_at) / Fold change /veh KRT8 (11758183_x_at) / RFU CNN1 (11734310_a_at) / Fold change /veh CNN1 (11734310_a_at) / RFU VPS37D (11726825_at) / Fold change /veh VPS37D (11726825_at) / RFU C10orf10 (11716522_x_at) / Fold change /veh C10orf10 (11716522_x_at) / RFU KIR2DL2 /// KIR2DL4 /// KIR2DL5A /// KIR2DL5B /// KIR2DS1 /// KIR2DS2 /// KIR2DS3 /// KIR2DS4 /// KIR3DL3 /// KIR3DL3 /// KIR3DS1 (11738374_at) / Fold change /veh KIR2DL2 /// KIR2DL4 /// KIR2DL5A /// KIR2DL5B /// KIR2DS1 /// KIR2DS2 /// KIR2DS3 /// KIR2DS4 /// KIR3DL3 /// KIR3DL3 /// KIR3DS1 (11738374_at) / RFU C1QL1 (11718748_at) / Fold change /veh C1QL1 (11718748_at) / RFU TMPRSS4 (11747572_a_at) / Fold change /veh TMPRSS4 (11747572_a_at) / RFU HAMP (11756126_x_at) / Fold change /veh HAMP (11756126_x_at) / RFU RNFT2 (11725882_a_at) / Fold change /veh RNFT2 (11725882_a_at) / RFU NR4A2 (11747474_a_at) / Fold change /veh NR4A2 (11747474_a_at) / RFU ABCC12 (11746883_a_at) / Fold change /veh ABCC12 (11746883_a_at) / RFU TMEM136 (11760407_x_at) / Fold change /veh TMEM136 (11760407_x_at) / RFU CLDN22 /// WWC2 (11732394_at) / Fold change /veh CLDN22 /// WWC2 (11732394_at) / RFU HLA-DPB1 (11760878_x_at) / Fold change /veh HLA-DPB1 (11760878_x_at) / RFU SPINT1 (11716480_a_at) / Fold change /veh SPINT1 (11716480_a_at) / RFU GAP43 (11754022_s_at) / Fold change /veh GAP43 (11754022_s_at) / RFU A4GNT (11735810_at) / Fold change /veh A4GNT (11735810_at) / RFU PRB3 (11715151_x_at) / Fold change /veh PRB3 (11715151_x_at) / RFU TUBB4B (11761932_at) / Fold change /veh TUBB4B (11761932_at) / RFU CAPN14 (11732068_a_at) / Fold change /veh CAPN14 (11732068_a_at) / RFU TMCC2 (11721928_a_at) / Fold change /veh TMCC2 (11721928_a_at) / RFU IRGQ (11745062_a_at) / Fold change /veh IRGQ (11745062_a_at) / RFU FAM174B (11720279_a_at) / Fold change /veh FAM174B (11720279_a_at) / RFU TMPRSS4 (11748680_a_at) / Fold change /veh TMPRSS4 (11748680_a_at) / RFU FAM212B (11763350_a_at) / Fold change /veh FAM212B (11763350_a_at) / RFU PLEKHG5 (11743358_a_at) / Fold change /veh PLEKHG5 (11743358_a_at) / RFU ZSCAN30 (11745921_a_at) / Fold change /veh ZSCAN30 (11745921_a_at) / RFU CMKLR1 (11741424_a_at) / Fold change /veh CMKLR1 (11741424_a_at) / RFU LOC101060620 /// MAPK8IP1 (11723275_at) / Fold change /veh LOC101060620 /// MAPK8IP1 (11723275_at) / RFU SPTSSB (11747773_x_at) / Fold change /veh SPTSSB (11747773_x_at) / RFU PRSS12 (11739890_at) / Fold change /veh PRSS12 (11739890_at) / RFU BIN1 (11741810_x_at) / Fold change /veh BIN1 (11741810_x_at) / RFU WNT11 (11732464_a_at) / Fold change /veh WNT11 (11732464_a_at) / RFU C10orf10 (11716521_a_at) / Fold change /veh C10orf10 (11716521_a_at) / RFU C5orf56 (11738089_at) / Fold change /veh C5orf56 (11738089_at) / RFU CYB561 (11721691_x_at) / Fold change /veh CYB561 (11721691_x_at) / RFU ANKRD19P (11752326_a_at) / Fold change /veh ANKRD19P (11752326_a_at) / RFU OR2T12 /// OR2T33 /// OR2T8 (11738714_s_at) / Fold change /veh OR2T12 /// OR2T33 /// OR2T8 (11738714_s_at) / RFU VCAN (11748164_a_at) / Fold change /veh VCAN (11748164_a_at) / RFU JSRP1 (11732532_at) / Fold change /veh JSRP1 (11732532_at) / RFU KRTAP10-11 (11738290_x_at) / Fold change /veh KRTAP10-11 (11738290_x_at) / RFU MYO3A (11730013_a_at) / Fold change /veh MYO3A (11730013_a_at) / RFU EBF3 (11725865_a_at) / Fold change /veh EBF3 (11725865_a_at) / RFU CAMK2N1 (11719241_x_at) / Fold change /veh CAMK2N1 (11719241_x_at) / RFU C5orf56 (11738088_a_at) / Fold change /veh C5orf56 (11738088_a_at) / RFU OLFML3 (11715873_a_at) / Fold change /veh OLFML3 (11715873_a_at) / RFU LOC100653217 /// NTM (11731650_a_at) / Fold change /veh LOC100653217 /// NTM (11731650_a_at) / RFU MAPK11 (11762145_a_at) / Fold change /veh MAPK11 (11762145_a_at) / RFU FIZ1 (11724087_x_at) / Fold change /veh FIZ1 (11724087_x_at) / RFU OASL (11726364_x_at) / Fold change /veh OASL (11726364_x_at) / RFU SOX15 (11748057_x_at) / Fold change /veh SOX15 (11748057_x_at) / RFU CD79A (11719716_a_at) / Fold change /veh CD79A (11719716_a_at) / RFU HIST1H1D (11736915_at) / Fold change /veh HIST1H1D (11736915_at) / RFU CASKIN2 (11723855_a_at) / Fold change /veh CASKIN2 (11723855_a_at) / RFU LOC730098 (11760151_x_at) / Fold change /veh LOC730098 (11760151_x_at) / RFU OR4N2 (11742367_at) / Fold change /veh OR4N2 (11742367_at) / RFU PRRT2 (11749266_a_at) / Fold change /veh PRRT2 (11749266_a_at) / RFU SNX32 (11753110_a_at) / Fold change /veh SNX32 (11753110_a_at) / RFU CDHR5 (11726645_a_at) / Fold change /veh CDHR5 (11726645_a_at) / RFU RCAN1 (11760418_a_at) / Fold change /veh RCAN1 (11760418_a_at) / RFU FAM167A (11723789_a_at) / Fold change /veh FAM167A (11723789_a_at) / RFU FAM26E (11764081_at) / Fold change /veh FAM26E (11764081_at) / RFU ISYNA1 (11749810_s_at) / Fold change /veh ISYNA1 (11749810_s_at) / RFU ACY1 (11761880_at) / Fold change /veh ACY1 (11761880_at) / RFU 11764098_at / Fold change /veh 11764098_at / RFU SAMD14 (11745864_x_at) / Fold change /veh SAMD14 (11745864_x_at) / RFU NPB (11741838_a_at) / Fold change /veh NPB (11741838_a_at) / RFU TMPRSS6 (11731388_a_at) / Fold change /veh TMPRSS6 (11731388_a_at) / RFU KRTAP10-2 (11738614_at) / Fold change /veh KRTAP10-2 (11738614_at) / RFU ARHGAP8 /// PRR5-ARHGAP8 (11727945_x_at) / Fold change /veh ARHGAP8 /// PRR5-ARHGAP8 (11727945_x_at) / RFU KRTAP5-7 /// NADSYN1 (11734609_at) / Fold change /veh KRTAP5-7 /// NADSYN1 (11734609_at) / RFU RASL12 (11751679_a_at) / Fold change /veh RASL12 (11751679_a_at) / RFU CDKN2B (11736163_a_at) / Fold change /veh CDKN2B (11736163_a_at) / RFU PRF1 (11729649_at) / Fold change /veh PRF1 (11729649_at) / RFU, ZNF638 /// ZNF638-IT1 / Fold change vs veh, ZNF638 /// ZNF638-IT1 / RFU, PANK3 / Fold change vs veh, PANK3 / RFU, SH3YL1 / Fold change vs veh, SH3YL1 / RFU, ZEB2 / Fold change vs veh, ZEB2 / RFU, NRIP1 / Fold change vs veh, NRIP1 / RFU, PTTG1IP / Fold change vs veh, PTTG1IP / RFU, CAPN2 / Fold change vs veh, CAPN2 / RFU, MED14 / Fold change vs veh, MED14 / RFU, SNORA58 / Fold change vs veh, SNORA58 / RFU, C1orf63 / Fold change vs veh, C1orf63 / RFU, LRRFIP1 / Fold change vs veh, LRRFIP1 / RFU, NDUFAF7 / Fold change vs veh, NDUFAF7 / RFU, SLC12A2 / Fold change vs veh, SLC12A2 / RFU, IBTK / Fold change vs veh, IBTK / RFU, ESF1 / Fold change vs veh, ESF1 / Fold change vs veh, TMEM50B / RFU, TAOK1 / Fold change vs veh, TAOK1 / RFU, ACBD3 / Fold change vs veh, ACBD3 / RFU, TMA16 / Fold change vs veh, TMA16 / RFU, RWDD3 / Fold change vs veh, RWDD3 / RFU, BCAT1 / Fold change vs veh, BCAT1 / RFU, EDEM3 / Fold change vs veh, EDEM3 / RFU, TMEM33 / Fold change vs veh, TMEM33 / RFU, WDR75 / Fold change vs veh, WDR75 / RFU, AHCTF1 / Fold change vs veh, AHCTF1 / RFU, TFRC / Fold change vs veh, TFRC / RFU, ZDHHC17 / Fold change vs veh, ZDHHC17 / RFU, NOM1 / Fold change vs veh, NOM1 / RFU, ARL8B / Fold change vs veh, ARL8B / RFU, ZBTB11 / Fold change vs veh, ZBTB11 / RFU, TAMM41 / Fold change vs veh, TAMM41 / RFU, KIAA1704 /// LOC100996395 / Fold change vs veh, KIAA1704 /// LOC100996395 / RFU, ING1 / Fold change vs veh, ING1 / RFU, TRMT61B / Fold change vs veh, TRMT61B / RFU, FUBP3 / Fold change vs veh, FUBP3 / RFU, TP53 / Fold change vs veh, TP53 / RFU, TNKS2 / Fold change vs veh, TNKS2 / RFU, ZFP14 / Fold change vs veh, ZFP14 / RFU, ACTR2 / Fold change vs veh, ACTR2 / RFU, PPP3R1 / Fold change vs veh, PPP3R1 / RFU, PIK3R1 / Fold change vs veh, PIK3R1 / RFU, HNRNPA1 / Fold change vs veh, HNRNPA1 / RFU, RNF170 / Fold change vs veh, RNF170 / RFU, ZNF28 / Fold change vs veh, ZNF28 / RFU, RNGTT / Fold change vs veh, RNGTT / RFU, OGT / Fold change vs veh, OGT / RFU, BRD1 / Fold change vs veh, BRD1 / RFU, MARS / Fold change vs veh, MARS / RFU, ZNF655 / Fold change vs veh, ZNF655 / RFU, FAHD1 / Fold change vs veh, FAHD1 / RFU, BDP1 / Fold change vs veh, BDP1 / RFU, LRRCC1 / Fold change vs veh, LRRCC1 / RFU, ARID1A / Fold change vs veh, ARID1A / RFU, ZNF146 / Fold change vs veh, ZNF146 / RFU, ZNF330 / Fold change vs veh, ZNF330 / RFU, GPN3 / Fold change vs veh, GPN3 / RFU, C9orf123 / Fold change vs veh, C9orf123 / RFU, N4BP2L2 / Fold change vs veh, N4BP2L2 / RFU, ARFIP1 / Fold change vs veh, ARFIP1 / RFU, FAM179B / Fold change vs veh, FAM179B / RFU, BCL10 / Fold change vs veh, BCL10 / RFU, UHRF1BP1L / Fold change vs veh, UHRF1BP1L / RFU, BET1 / Fold change vs veh, BET1 / RFU, CNOT2 / Fold change vs veh, CNOT2 / RFU, ZNF268 / Fold change vs veh, ZNF268 / Fold change vs veh, ZNF507 / RFU, DGCR2 / Fold change vs veh, DGCR2 / RFU, WDSUB1 / Fold change vs veh, WDSUB1 / Fold change vs veh, HSP90B1 /// MIR3652 / RFU, ADSS / Fold change vs veh, ADSS / RFU, GK / Fold change vs veh, GK / RFU, ZNF148 / Fold change vs veh, ZNF148 / RFU, TAF9 / Fold change vs veh, TAF9 / RFU, SLC1A5 / Fold change vs veh, SLC1A5 / RFU, SLMO2 / Fold change vs veh, SLMO2 / RFU, ABCC4 / Fold change vs veh, ABCC4 / RFU, LOC101060439 /// RAP1B / Fold change vs veh, LOC101060439 /// RAP1B / RFU, RFX7 / Fold change vs veh, RFX7 / RFU, GTPBP10 / Fold change vs veh, GTPBP10 / RFU, CNEP1R1 / Fold change vs veh, CNEP1R1 / RFU, BIVM-ERCC5 /// ERCC5 / Fold change vs veh, BIVM-ERCC5 /// ERCC5 / RFU, ILF3 / Fold change vs veh, ILF3 / RFU 11762660_at / Fold change /veh 11762660_at / RFU VCAN (11757783_s_at) / Fold change /veh VCAN (11757783_s_at) / RFU DDX43 (11728927_at) / Fold change /veh DDX43 (11728927_at) / RFU KRT8 (11758188_x_at) / Fold change /veh KRT8 (11758188_x_at) / RFU NKD1 (11759106_at) / Fold change /veh NKD1 (11759106_at) / RFU SRD5A1 (11742802_a_at) / Fold change /veh SRD5A1 (11742802_a_at) / RFU TPSAB1 /// TPSB2 (11721975_s_at) / Fold change /veh TPSAB1 /// TPSB2 (11721975_s_at) / RFU GSTM3 (11746129_a_at) / Fold change /veh GSTM3 (11746129_a_at) / RFU IL23R (11737362_x_at) / Fold change /veh IL23R (11737362_x_at) / RFU TMEM51 (11727254_a_at) / Fold change /veh TMEM51 (11727254_a_at) / RFU PIWIL2 (11732686_x_at) / Fold change /veh PIWIL2 (11732686_x_at) / RFU ORM1 (11744905_x_at) / Fold change /veh ORM1 (11744905_x_at) / RFU CCDC152 (11743942_at) / Fold change /veh CCDC152 (11743942_at) / RFU ECM1 (11717891_a_at) / Fold change /veh ECM1 (11717891_a_at) / RFU IL23R (11748794_a_at) / Fold change /veh IL23R (11748794_a_at) / RFU TNFAIP8L3 (11732012_x_at) / Fold change /veh TNFAIP8L3 (11732012_x_at) / RFU MBOAT4 (11741988_at) / Fold change /veh MBOAT4 (11741988_at) / RFU 11764193_at / Fold change /veh 11764193_at / RFU TMEM53 (11763286_at) / Fold change /veh TMEM53 (11763286_at) / RFU MAGEB2 (11727129_at) / Fold change /veh MAGEB2 (11727129_at) / RFU TMEM200A (11744735_a_at) / Fold change /veh TMEM200A (11744735_a_at) / RFU CCDC152 (11751479_a_at) / Fold change /veh CCDC152 (11751479_a_at) / RFU FAM211A (11726209_a_at) / Fold change /veh FAM211A (11726209_a_at) / RFU RGS16 (11746705_a_at) / Fold change /veh RGS16 (11746705_a_at) / RFU VCAN (11755009_s_at) / Fold change /veh VCAN (11755009_s_at) / RFU RHOB (11743442_s_at) / Fold change /veh RHOB (11743442_s_at) / RFU RGS16 (11720943_a_at) / Fold change /veh RGS16 (11720943_a_at) / RFU RGS16 (11720944_at) / Fold change /veh RGS16 (11720944_at) / RFU, VPS4B / Fold change vs veh, VPS4B / RFU, CREB1 / Fold change vs veh, CREB1 / RFU, DNAJC13 / Fold change vs veh, DNAJC13 / RFU, GNAQ / Fold change vs veh, GNAQ / RFU, CDK5R1 / Fold change vs veh, CDK5R1 / RFU, ZRANB3 / Fold change vs veh, ZRANB3 / RFU, CUL4A / Fold change vs veh, CUL4A / RFU, CCNY / Fold change vs veh, CCNY / RFU, UFL1 / Fold change vs veh, UFL1 / RFU, COG3 / Fold change vs veh, COG3 / RFU, DIAPH2 / Fold change vs veh, DIAPH2 / RFU, SKA2 / Fold change vs veh, SKA2 / RFU, AFF3 / Fold change vs veh, AFF3 / RFU, LMF1 / Fold change vs veh, LMF1 / RFU, IPO11 / Fold change vs veh, IPO11 / RFU, DFFB / Fold change vs veh, DFFB / RFU, FOXP1 / Fold change vs veh, FOXP1 / RFU, CARD8 / Fold change vs veh, CARD8 / RFU, STRN3 / Fold change vs veh, STRN3 / RFU, ADK / Fold change vs veh, ADK / RFU, RASSF2 / Fold change vs veh, RASSF2 / RFU, WIPF1 / Fold change vs veh, WIPF1 / RFU, LARP1B / Fold change vs veh, LARP1B / RFU, RASA1 / Fold change vs veh, RASA1 / RFU, RB1 / Fold change vs veh, RB1 / RFU, PPFIA1 / Fold change vs veh, PPFIA1 / RFU, MAT2A / Fold change vs veh, MAT2A / RFU, CCT5 / Fold change vs veh, CCT5 / RFU, WDR92 / Fold change vs veh, WDR92 / RFU, CUX1 / Fold change vs veh, CUX1 / RFU, TTC7A / Fold change vs veh, TTC7A / RFU, TMEM135 / Fold change vs veh, TMEM135 / RFU, DEPTOR / Fold change vs veh, DEPTOR / RFU, CPM / Fold change vs veh, CPM / RFU, DNAJB6 / Fold change vs veh, DNAJB6 / RFU, CACNA2D3 / Fold change vs veh, CACNA2D3 / RFU, DTX4 / Fold change vs veh, DTX4 / RFU, TFCP2 / Fold change vs veh, TFCP2 / RFU, GMCL1 /// GMCL1P1 / Fold change vs veh, GMCL1 /// GMCL1P1 / RFU, AEBP2 / Fold change vs veh, AEBP2 / RFU, SNHG1 /// SNORD22 /// SNORD25 /// SNORD26 /// SNORD27 /// SNORD28 /// SNORD29 /// SNORD31 / Fold change vs veh, SNHG1 /// SNORD22 /// SNORD25 /// SNORD26 /// SNORD27 /// SNORD28 /// SNORD29 /// SNORD31 / Fold change (Aza/veh), C12orf56 (ProbeSet 11735607_a_at) / Fold change (ACY-1035/veh), C12orf56 (ProbeSet 11735607_a_at) / Fold change (Aza/veh), FGFR1OP (ProbeSet 11751329_s_at) / Fold change (ACY-1035/veh), FGFR1OP (ProbeSet 11751329_s_at) / Fold change (Aza/veh), VPS36 (ProbeSet 11739960_a_at) / Fold change (ACY-1035/veh), VPS36 (ProbeSet 11739960_a_at) / RFU SYPL1 (11715823_x_at) / Fold change /veh SYPL1 (11715823_x_at) / RFU IGFBP7 (11715501_s_at) / Fold change /veh IGFBP7 (11715501_s_at) / RFU REEP3 (11722064_at) / Fold change /veh REEP3 (11722064_at) / RFU IGLL1 (11728026_x_at) / Fold change /veh IGLL1 (11728026_x_at): dose or concentration left out as unconfirmed",
  "settings": "ProbeSet 11731583_a_at; LIST D",
  "data": [
    {"smiles": "Nc1ccc(-c2cccs2)cc1NC(=O)c1ccc2c(c1)cc(C1CC1)n2CCN1CCOCC1", "note": "[ACY-1035]", "values": [
      {"measurement": "Fold change vs veh, LARP1B", "result": 0.85}
    ]}
  ]
}
